Assay results from patent US20230085307A1, “PYRIDAZINONE COMPOUND AND HERBICIDE” (NISSAN CHEMICAL CORPORATION, priority 2019, published 2023).

Columns and labels:
rice flat sedge = experiment: Test Example 3: herbicidal effect by foliage application, Wagner pot (Table 18, symbol E); format: in vivo, rice flat sedge (Cyperus iria); settings: 320 g/ha
Procedure, shortened: (§1)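 Plants were sown in alluvial soil held under 0.1–0.5 cm standing water and grown 14 days in a greenhouse at 25–30 °C. An emulsifiable formulation, water-diluted to the set dose, was then sprayed onto the foliage, and effects were scored three weeks later using previously defined criteria.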

oval-leafed pondweed = experiment: Test Example 1: herbicidal activity, application before weed generation under submerged conditions (Table 16, symbol C); format: in vivo, oval-leafed pondweed (Monochoria vaginalis); settings: amount of applied herbicide 320 g/ha
Procedure, shortened: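 Alluvial soil was flooded to 4 cm depth, weed seeds were sown mixed and 2.5-leaf rice seedlings were transplanted. On sowing day, the compound's emulsion, diluted in water to a set dose, was applied to the water surface. Plants grew at 25–30 °C and were scored 0–5 after three weeks.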

redroot pigweed = experiment: Test Example 4: herbicidal effect by soil treatment (Table 19, symbol N); format: in vivo, redroot pigweed (Amaranthus retroflexus); settings: amount of applied herbicide 320 g/ha
Procedure, shortened: (§2)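 Scoring uses the grading scale of an earlier test, three weeks post-application. Treatment consists of spraying a diluted emulsion formulation across the surface of sterilized diluvial soil in which seeds are buried near 1.5 cm deep; boxes are kept in a greenhouse between 25° C. and 30° C.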

blackgrass [1] = experiment: Test Example 5: herbicidal effect by foliage application, plastic box (Table 20, symbol J); format: in vivo, blackgrass (Alopecurus myosuroides); settings: for herbicidal effect on J: blackgrass (evaluation grade 0-5) / J: blackgrass, herbicidal effect grade: 320 g/ha; for J: blackgrass, herbicidal effect grade: foliage application, three weeks after application
Procedure, shortened: (§3)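 Post-emergence foliar test in sterilized diluvial soil. Compound applied as water-diluted emulsion at a predetermined rate to 14-day-old plants; evaluation at three weeks.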

southern crabgrass [2] = experiment: Test Example 4: herbicidal effect by soil treatment (Table 19, symbol F); format: in vivo, southern crabgrass (Digitaria ciliaris); settings: amount of applied herbicide 320 g/ha
Procedure, shortened: as §2

green foxtail = experiment: Test Example 4: herbicidal effect by soil treatment (Table 19, symbol G); format: in vivo, green foxtail (Setaria viridis); settings: amount of applied herbicide 320 g/ha
Procedure, shortened: as §2

wild oat [3] = experiment: Test Example 5: herbicidal effect by foliage application, plastic box (Table 20, symbol I); format: in vivo, wild oat (Avena fatua); settings: for herbicidal effect on I: wild oat (evaluation grade 0-5) / I: wild oat, herbicidal effect grade: 320 g/ha; for I: wild oat, herbicidal effect grade: foliage application, three weeks after application
Procedure, shortened: as §3

velvetleaf = experiment: Test Example 5: herbicidal effect by foliage application, plastic box (Table 20, symbol M); format: in vivo, velvetleaf (Abutilon theophrasti); settings: for herbicidal effect on M: velvetleaf (evaluation grade 0-5) / M: velvetleaf, herbicidal effect grade: 320 g/ha; for M: velvetleaf, herbicidal effect grade: foliage application, three weeks after application
Procedure, shortened: as §3

Italian ryegrass = experiment: Test Example 5: herbicidal effect by foliage application, plastic box (Table 20, symbol K); format: in vivo, Italian ryegrass (Lolium multiflorum); settings: for herbicidal effect on K: Italian ryegrass (evaluation grade 0-5) / K: Italian ryegrass, herbicidal effect grade: 320 g/ha; for K: Italian ryegrass, herbicidal effect grade: foliage application, three weeks after application
Procedure, shortened: as §3

Chinese sprangletop = experiment: Test Example 3: herbicidal effect by foliage application, Wagner pot (Table 18, symbol D); format: in vivo, chinese sprangletop (Leptochloa chinensis); settings: 320 g/ha
Procedure, shortened: as §1

wild oat [4] = experiment: Test Example 4: herbicidal effect by soil treatment (Table 19, symbol I); format: in vivo, wild oat (Avena fatua); settings: amount of applied herbicide 320 g/ha
Procedure, shortened: as §2

lambsquarters = experiment: Test Example 5: herbicidal effect by foliage application, plastic box (Table 20, symbol O); format: in vivo, lambsquarters (Chenopodium album); settings: for herbicidal effect on O: lambsquarters (evaluation grade 0-5) / O: lambsquarters, herbicidal effect grade: 320 g/ha; for O: lambsquarters, herbicidal effect grade: foliage application, three weeks after application
Procedure, shortened: as §3

blackgrass [5] = experiment: Test Example 4: herbicidal effect by soil treatment (Table 19, symbol J); format: in vivo, blackgrass (Alopecurus myosuroides); settings: amount of applied herbicide 320 g/ha
Procedure, shortened: as §2

southern crabgrass [6] = experiment: Test Example 5: herbicidal effect by foliage application, plastic box (Table 20, symbol F); format: in vivo, southern crabgrass (Digitaria ciliaris); settings: for herbicidal effect on F: southern crabgrass (evaluation grade 0-5) / F: southern crabgrass, herbicidal effect grade: 320 g/ha; for F: southern crabgrass, herbicidal effect grade: foliage application, three weeks after application
Procedure, shortened: as §3

Japanese bulrush = experiment: Test Example 2: herbicidal activity, application during weed generation under submerged conditions (Table 17, symbol B); format: in vivo, Japanese bulrush (Schoenoplectus juncoides); settings: AAH 320 g/ha; application during weed generation, submerged conditions
Procedure, shortened: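 3-wk visual-criteria score after one water-surface dose. Emulsion formulation, water-diluted to set rate; applied at 1–2 leaf stage; alluvial soil, 4 cm standing water; seeds co-sown; greenhouse 25–30° C.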

barnyard grass = experiment: Test Example 5: herbicidal effect by foliage application, plastic box (Table 20, symbol H); format: in vivo, barnyard grass (Echinochloa crus-galli); settings: for herbicidal effect on H: barnyard grass (evaluation grade 0-5) / H: barnyard grass, herbicidal effect grade: 320 g/ha; for H: barnyard grass, herbicidal effect grade: foliage application, three weeks after application
Procedure, shortened: as §3

[7] = foliage application after 14-day growth, evaluated three weeks after application
[8] = amount of applied herbicide 320 g/ha, foliage application after 14-day growth, evaluated three weeks after application

Compound | herbicidal effect on rice flat sedge (E) (rice flat sedge) | Herbicidal effect, C: oval-leafed pondweed (oval-leafed pondweed) | Herbicidal effect by soil treatment, N: redroot pigweed (redroot pigweed) | herbicidal effect on J: blackgrass (evaluation grade 0-5) (blackgrass [1]; [7]) | Herbicidal effect by soil treatment, F: southern crabgrass (southern crabgrass [2]) | Herbicidal effect by soil treatment, G: green foxtail (green foxtail) | herbicidal effect on I: wild oat (evaluation grade 0-5) (wild oat [3]; [7]) | herbicidal effect on M: velvetleaf (evaluation grade 0-5) (velvetleaf; [7]) | herbicidal effect on K: Italian ryegrass (evaluation grade 0-5) (Italian ryegrass; [7]) | herbicidal effect on Chinese sprangletop (D) (Chinese sprangletop) | Herbicidal effect by soil treatment, I: wild oat (wild oat [4]) | herbicidal effect on O: lambsquarters (evaluation grade 0-5) (lambsquarters; [7]) | Herbicidal effect by soil treatment, J: blackgrass (blackgrass [5]) | herbicidal effect on F: southern crabgrass (evaluation grade 0-5) (southern crabgrass [6]; [7]) | herbicidal effect rating, B: Japanese bulrush (Japanese bulrush) | N: redroot pigweed, herbicidal effect grade (redroot pigweed) | F: southern crabgrass, herbicidal effect grade (southern crabgrass [2]) | G: green foxtail, herbicidal effect grade (green foxtail) | I: wild oat, herbicidal effect grade (wild oat [4]) | J: blackgrass, herbicidal effect grade (blackgrass [5]) | other results
CCCC(=O)Oc1c(C)nn(C)c(=O)c1-c1c(-c2ccc(C#N)cc2)sc2c(Cl)cccc12 [4-032] | 5 (Herbicidal rate of 90% or more (almost completely withered)) | 0 (Herbicidal rate of 5% or less (almost no effect)) | 3 (Herbicidal rate of 40% or more and less than 70%) | 0 (Herbicidal rate of 5% or less (almost no effect)) | 0 (Herbicidal rate of 5% or less (almost no effect)) | 0 (Herbicidal rate of 5% or less (almost no effect)) | 0 (Herbicidal rate of 5% or less (almost no effect)) | 4 (Herbicidal rate of 70% or more and less than 90%) | 0 (Herbicidal rate of 5% or less (almost no effect)) | 3 (Herbicidal rate of 40% or more and less than 70%) | 0 (Herbicidal rate of 5% or less (almost no effect)) | 3 (Herbicidal rate of 40% or more and less than 70%) | 0 (Herbicidal rate of 5% or less (almost no effect)) | 0 (Herbicidal rate of 5% or less (almost no effect)) | 3 (Herbicidal rate of 40% or more and less than 70%) | – | – | – | – | – | herbicidal effect on H: barnyard grass (evaluation grade 0-5) (barnyard grass; [7]): 0 (Herbicidal rate of 5% or less (almost no effect))
COc1ccccc1-c1sc2cc(OCC(C)C)ccc2c1-c1c(O)c(C)nn(C)c1=O [3-107] | 4 (Herbicidal rate of 70% or more and less than 90%) | 5 (Herbicidal rate of 90% or more (almost completely withered)) | – | – | – | – | – | – | – | 3 (Herbicidal rate of 40% or more and less than 70%) | – | – | – | – | 5 (Herbicidal rate of 90% or more (almost completely withered)) | 5 (Herbicidal rate of 90% or more (almost completely withered)) | 3 (Herbicidal rate of 40% or more and less than 70%) | 4 (Herbicidal rate of 70% or more and less than 90%) | 0 (Herbicidal rate of 5% or less (almost no effect)) | 0 (Herbicidal rate of 5% or less (almost no effect)) | J: blackgrass, herbicidal effect grade (blackgrass [1]): 4 (Herbicidal rate of 70% or more and less than 90%); I: wild oat, herbicidal effect grade (wild oat [3]): 0 (Herbicidal rate of 5% or less (almost no effect)); M: velvetleaf, herbicidal effect grade (velvetleaf): 5 (Herbicidal rate of 90% or more (almost completely withered)); K: Italian ryegrass, herbicidal effect grade (Italian ryegrass): 5 (Herbicidal rate of 90% or more (almost completely withered)); O: lambsquarters, herbicidal effect grade (lambsquarters): 5 (Herbicidal rate of 90% or more (almost completely withered)); F: southern crabgrass, herbicidal effect grade (southern crabgrass [6]): 5 (Herbicidal rate of 90% or more (almost completely withered)); H: barnyard grass, herbicidal effect grade (barnyard grass): 3 (Herbicidal rate of 40% or more and less than 70%)
CCCC(=O)Oc1c(C)nn(C)c(=O)c1-c1c(-c2ccc(C#N)cc2)sc2cc(F)c(F)cc12 [5-026] | 5 (Herbicidal rate of 90% or more (almost completely withered)) | 0 (Herbicidal rate of 5% or less (almost no effect)) | – | – | – | – | – | – | – | 4 (Herbicidal rate of 70% or more and less than 90%) | – | – | – | – | 0 (Herbicidal rate of 5% or less (almost no effect)) | 4 (Herbicidal rate of 70% or more and less than 90%) | 0 (Herbicidal rate of 5% or less (almost no effect)) | 0 (Herbicidal rate of 5% or less (almost no effect)) | 0 (Herbicidal rate of 5% or less (almost no effect)) | 0 (Herbicidal rate of 5% or less (almost no effect)) | Herbicidal effect by foliage application, J: blackgrass (blackgrass [1]; [8]): 0 (Herbicidal rate of 5% or less (almost no effect)); Herbicidal effect by foliage application, I: wild oat (wild oat [3]; [8]): 1 (Herbicidal rate of 5% or more and less than 20%); Herbicidal effect by foliage application, M: velvetleaf (velvetleaf; [8]): 3 (Herbicidal rate of 40% or more and less than 70%); Herbicidal effect by foliage application, K: Italian ryegrass (Italian ryegrass; [8]): 0 (Herbicidal rate of 5% or less (almost no effect)); Herbicidal effect by foliage application, O: lambsquarters (lambsquarters; [8]): 4 (Herbicidal rate of 70% or more and less than 90%); Herbicidal effect by foliage application, F: southern crabgrass (southern crabgrass [6]; [8]): 0 (Herbicidal rate of 5% or less (almost no effect)); Herbicidal effect by foliage application, H: barnyard grass (barnyard grass; [8]): 0 (Herbicidal rate of 5% or less (almost no effect))
COc1ccccc1-c1sc2cc(OCc3ccccc3)ccc2c1-c1c(O)c(C)nn(C)c1=O [3-118] | 5 (Herbicidal rate of 90% or more (almost completely withered)) | 5 (Herbicidal rate of 90% or more (almost completely withered)) | – | – | – | – | – | – | – | 0 (Herbicidal rate of 5% or less (almost no effect)) | – | – | – | – | 2 (Herbicidal rate of 20% or more and less than 40%) | 3 (Herbicidal rate of 40% or more and less than 70%) | 0 (Herbicidal rate of 5% or less (almost no effect)) | 0 (Herbicidal rate of 5% or less (almost no effect)) | 0 (Herbicidal rate of 5% or less (almost no effect)) | 0 (Herbicidal rate of 5% or less (almost no effect)) | J: blackgrass, herbicidal effect grade (blackgrass [1]): 4 (Herbicidal rate of 70% or more and less than 90%); I: wild oat, herbicidal effect grade (wild oat [3]): 3 (Herbicidal rate of 40% or more and less than 70%); M: velvetleaf, herbicidal effect grade (velvetleaf): 2 (Herbicidal rate of 20% or more and less than 40%); K: Italian ryegrass, herbicidal effect grade (Italian ryegrass): 5 (Herbicidal rate of 90% or more (almost completely withered)); O: lambsquarters, herbicidal effect grade (lambsquarters): 5 (Herbicidal rate of 90% or more (almost completely withered)); F: southern crabgrass, herbicidal effect grade (southern crabgrass [6]): 4 (Herbicidal rate of 70% or more and less than 90%); H: barnyard grass, herbicidal effect grade (barnyard grass): 0 (Herbicidal rate of 5% or less (almost no effect))
CCCOc1ccc(-c2sc3c(F)cccc3c2-c2c(OC(=O)CCC)c(C)nn(C)c2=O)cc1 [4-010] | 5 (Herbicidal rate of 90% or more (almost completely withered)) | 3 (Herbicidal rate of 40% or more and less than 70%) | 4 (Herbicidal rate of 70% or more and less than 90%) | 4 (Herbicidal rate of 70% or more and less than 90%) | 0 (Herbicidal rate of 5% or less (almost no effect)) | 0 (Herbicidal rate of 5% or less (almost no effect)) | 0 (Herbicidal rate of 5% or less (almost no effect)) | 3 (Herbicidal rate of 40% or more and less than 70%) | 4 (Herbicidal rate of 70% or more and less than 90%) | 4 (Herbicidal rate of 70% or more and less than 90%) | 0 (Herbicidal rate of 5% or less (almost no effect)) | 5 (Herbicidal rate of 90% or more (almost completely withered)) | 0 (Herbicidal rate of 5% or less (almost no effect)) | 0 (Herbicidal rate of 5% or less (almost no effect)) | 0 (Herbicidal rate of 5% or less (almost no effect)) | – | – | – | – | – | herbicidal effect on H: barnyard grass (evaluation grade 0-5) (barnyard grass; [7]): 5 (Herbicidal rate of 90% or more (almost completely withered))
